Experimental data reported in PubChem BioAssay (NCI).
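Values below derive from 48-hour exposures of cells grown in 96-well plates, with endpoints linearly interpolated between the two concentrations bracketing the appropriate inhibition level. GI50 = concentration required for 50% inhibition of growth. TGI is the concentration that stops growth completely.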

Key:
Assay in all cases: NCI-60 cell line screen, 48 h
786-0 renal = system: 786-0 renal
A498 renal = system: A498 renal
A549 NSCLC = system: A549 NSCLC
ACHN renal = system: ACHN renal
CAKI-1 renal = system: CAKI-1 renal
CCRF-CEM leukemia = system: CCRF-CEM leukemia
COLO 205 colon = system: COLO 205 colon
DU-145 prostate = system: DU-145 prostate
EKVX NSCLC = system: EKVX NSCLC
HCT-116 colon = system: HCT-116 colon
HCT-15 colon = system: HCT-15 colon
HL-60(TB) leukemia = system: HL-60(TB) leukemia
HOP-62 NSCLC = system: HOP-62 NSCLC
HOP-92 NSCLC = system: HOP-92 NSCLC
HS 578T breast = system: HS 578T breast
HT29 colon = system: HT29 colon
IGROV1 ovarian = system: IGROV1 ovarian
K-562 leukemia = system: K-562 leukemia
KM12 colon = system: KM12 colon
LOX IMVI melanoma = system: LOX IMVI melanoma
M14 melanoma = system: M14 melanoma
MALME-3M melanoma = system: MALME-3M melanoma
MCF7 breast = system: MCF7 breast
MDA-MB-231 breast = system: MDA-MB-231 breast
MDA-MB-435 = system: MDA-MB-435
MDA-N = system: MDA-N
MOLT-4 leukemia = system: MOLT-4 leukemia
NCI-H226 lung = system: NCI-H226 lung
NCI-H23 lung = system: NCI-H23 lung
NCI-H460 lung = system: NCI-H460 lung
NCI-H522 lung = system: NCI-H522 lung
NCI/ADR-RES ovarian = system: NCI/ADR-RES ovarian
OVCAR-3 ovarian = system: OVCAR-3 ovarian
OVCAR-4 ovarian = system: OVCAR-4 ovarian
OVCAR-5 ovarian = system: OVCAR-5 ovarian
OVCAR-8 ovarian = system: OVCAR-8 ovarian
PC-3 prostate = system: PC-3 prostate
RPMI-8226 leukemia = system: RPMI-8226 leukemia
RXF 393 renal = system: RXF 393 renal
SF-268 CNS = system: SF-268 CNS
SF-295 CNS = system: SF-295 CNS
SF-539 CNS = system: SF-539 CNS
SK-MEL-2 melanoma = system: SK-MEL-2 melanoma
SK-MEL-28 melanoma = system: SK-MEL-28 melanoma
SK-MEL-5 melanoma = system: SK-MEL-5 melanoma
SK-OV-3 ovarian = system: SK-OV-3 ovarian
SN12C renal = system: SN12C renal
SNB-19 CNS = system: SNB-19 CNS
SNB-75 CNS = system: SNB-75 CNS
SR leukemia = system: SR leukemia
SW-620 colon = system: SW-620 colon
TK-10 renal = system: TK-10 renal
U251 CNS = system: U251 CNS
UACC-257 melanoma = system: UACC-257 melanoma
UACC-62 melanoma = system: UACC-62 melanoma
UO-31 renal = system: UO-31 renal
BT-549 breast = system: BT-549 breast
HCC-2998 colon = system: HCC-2998 colon
T-47D breast = system: T-47D breast

## O=C1NC(Cc2ccc(O)cc2)C(=O)NC1Cc1ccc(O)cc1 (configuration not stated)
786-0 renal
  TGI: > 100 µM
A498 renal
  TGI: > 100 µM
A549 NSCLC
  TGI: > 100 µM
ACHN renal
  TGI: > 100 µM
CAKI-1 renal
  TGI: > 100 µM
CCRF-CEM leukemia
  TGI: > 100 µM
COLO 205 colon
  TGI: > 100 µM
DU-145 prostate
  TGI: > 100 µM
EKVX NSCLC
  TGI: > 100 µM
HCT-116 colon
  TGI: > 100 µM
HCT-15 colon
  TGI: > 100 µM
HL-60(TB) leukemia
  TGI: > 100 µM
HOP-62 NSCLC
  TGI: > 100 µM
HOP-92 NSCLC
  TGI: > 100 µM
HS 578T breast
  TGI: > 100 µM
HT29 colon
  TGI: > 100 µM
IGROV1 ovarian
  TGI: > 100 µM
K-562 leukemia
  TGI: > 100 µM
KM12 colon
  TGI: > 100 µM
LOX IMVI melanoma
  TGI: > 100 µM
M14 melanoma
  TGI: > 100 µM
MALME-3M melanoma
  TGI: > 100 µM
MCF7 breast
  TGI: > 100 µM
MDA-MB-231 breast
  TGI: > 100 µM
MDA-MB-435
  TGI: > 100 µM
MDA-N
  TGI: > 100 µM
MOLT-4 leukemia
  TGI: > 100 µM
NCI-H226 lung
  TGI: > 100 µM
NCI-H23 lung
  TGI: > 100 µM
NCI-H460 lung
  TGI: > 100 µM
NCI-H522 lung
  TGI: > 100 µM
NCI/ADR-RES ovarian
  TGI: > 100 µM
OVCAR-3 ovarian
  TGI: > 100 µM
OVCAR-4 ovarian
  TGI: > 100 µM
OVCAR-5 ovarian
  TGI: > 100 µM
OVCAR-8 ovarian
  TGI: > 100 µM
PC-3 prostate
  TGI: > 100 µM
RPMI-8226 leukemia
  TGI: > 100 µM
RXF 393 renal
  TGI: > 100 µM
SF-268 CNS
  TGI: > 100 µM
SF-295 CNS
  TGI: > 100 µM
SF-539 CNS
  TGI: > 100 µM
SK-MEL-2 melanoma
  TGI: > 100 µM
SK-MEL-28 melanoma
  TGI: > 100 µM
SK-MEL-5 melanoma
  TGI: > 100 µM
SK-OV-3 ovarian
  TGI: > 100 µM
SN12C renal
  TGI: > 100 µM
SNB-19 CNS
  TGI: > 100 µM
SNB-75 CNS
  TGI: > 100 µM
SR leukemia
  TGI: > 100 µM
SW-620 colon
  TGI: > 100 µM
TK-10 renal
  TGI: > 100 µM
U251 CNS
  TGI: > 100 µM
UACC-257 melanoma
  TGI: > 100 µM
UACC-62 melanoma
  TGI: > 100 µM
UO-31 renal
  TGI: > 100 µM

## NC(=O)c1ccc(Oc2nccc(-c3c(-c4ccc(F)cc4)ncn3C3CCNCC3)n2)cc1
786-0 renal
  GI50: > 25 µM
  TGI: > 25 µM
A498 renal
  GI50: > 18.2 µM
  TGI: > 25 µM
A549 NSCLC
  GI50: > 25 µM
  TGI: > 25 µM
ACHN renal
  GI50: > 25 µM
  TGI: > 25 µM
BT-549 breast
  GI50: > 25 µM
  TGI: > 25 µM
CAKI-1 renal
  GI50: > 25 µM
  TGI: > 25 µM
CCRF-CEM leukemia
  GI50: > 25 µM
  TGI: > 25 µM
COLO 205 colon
  GI50: > 25 µM
  TGI: > 25 µM
DU-145 prostate
  GI50: > 25 µM
  TGI: > 25 µM
EKVX NSCLC
  GI50: > 25 µM
  TGI: > 25 µM
HCC-2998 colon
  GI50: > 25 µM
  TGI: > 25 µM
HCT-116 colon
  GI50: > 25 µM
  TGI: > 25 µM
HCT-15 colon
  GI50: > 25 µM
  TGI: > 25 µM
HL-60(TB) leukemia
  GI50: > 25 µM
  TGI: > 25 µM
HOP-62 NSCLC
  GI50: > 25 µM
  TGI: > 25 µM
HOP-92 NSCLC
  GI50: > 25 µM
  TGI: > 25 µM
HS 578T breast
  GI50: > 9.72 µM
  TGI: > 25 µM
HT29 colon
  GI50: > 25 µM
  TGI: > 25 µM
IGROV1 ovarian
  GI50: > 25 µM
  TGI: > 25 µM
K-562 leukemia
  GI50: > 25 µM
  TGI: > 25 µM
KM12 colon
  GI50: > 25 µM
  TGI: > 25 µM
LOX IMVI melanoma
  GI50: > 25 µM
  TGI: > 25 µM
M14 melanoma
  GI50: > 25 µM
  TGI: > 25 µM
MALME-3M melanoma
  GI50: > 25 µM
  TGI: > 25 µM
MCF7 breast
  GI50: > 25 µM
  TGI: > 25 µM
MDA-MB-231 breast
  GI50: > 25 µM
  TGI: > 25 µM
MDA-MB-435
  GI50: > 25 µM
  TGI: > 25 µM
MOLT-4 leukemia
  GI50: > 25 µM
  TGI: > 25 µM
NCI-H226 lung
  GI50: > 25 µM
  TGI: > 25 µM
NCI-H23 lung
  GI50: > 25 µM
  TGI: > 25 µM
NCI-H460 lung
  GI50: > 25 µM
  TGI: > 25 µM
NCI-H522 lung
  GI50: > 25 µM
  TGI: > 25 µM
NCI/ADR-RES ovarian
  GI50: > 25 µM
  TGI: > 25 µM
OVCAR-3 ovarian
  GI50: > 25 µM
  TGI: > 25 µM
OVCAR-4 ovarian
  GI50: > 25 µM
  TGI: > 25 µM
OVCAR-5 ovarian
  GI50: > 25 µM
  TGI: > 25 µM
OVCAR-8 ovarian
  GI50: > 25 µM
  TGI: > 25 µM
PC-3 prostate
  GI50: > 25 µM
  TGI: > 25 µM
RPMI-8226 leukemia
  GI50: > 25 µM
  TGI: > 25 µM
RXF 393 renal
  GI50: > 25 µM
  TGI: > 25 µM
SF-268 CNS
  GI50: > 25 µM
  TGI: > 25 µM
SF-295 CNS
  GI50: > 25 µM
  TGI: > 25 µM
SF-539 CNS
  GI50: > 25 µM
  TGI: > 25 µM
SK-MEL-2 melanoma
  GI50: > 25 µM
  TGI: > 25 µM
SK-MEL-28 melanoma
  GI50: > 25 µM
  TGI: > 25 µM
SK-MEL-5 melanoma
  GI50: > 25 µM
  TGI: > 25 µM
SK-OV-3 ovarian
  GI50: > 25 µM
  TGI: > 25 µM
SN12C renal
  GI50: > 25 µM
  TGI: > 25 µM
SNB-19 CNS
  GI50: > 25 µM
  TGI: > 25 µM
SNB-75 CNS
  GI50: > 25 µM
  TGI: > 25 µM
SR leukemia
  GI50: > 25 µM
  TGI: > 25 µM
SW-620 colon
  GI50: > 25 µM
  TGI: > 25 µM
T-47D breast
  GI50: > 25 µM
  TGI: > 25 µM
TK-10 renal
  GI50: > 25 µM
  TGI: > 25 µM
U251 CNS
  GI50: > 25 µM
  TGI: > 25 µM
UACC-257 melanoma
  GI50: > 25 µM
  TGI: > 25 µM
UACC-62 melanoma
  GI50: > 25 µM
  TGI: > 25 µM
UO-31 renal
  GI50: > 25 µM
  TGI: > 25 µM
